Data taken from US10793551B2, “Benzimidazole-indole inhibitors of Mnk1 and Mnk2” (eFFECTOR Therapeutics, Inc., priority 2017, dated 2020).

Molecular target: T1, MNK
T1 construct: 10 nM recombinant MNK1 (Life Technologies, PR9138A)
Test: MNK Biochemical Enzymatic Assay (ADP-Glo kinase assay)
Details: recombinant MNK1 (300 μM ATP) / MNK2 (10 μM ATP) described; table does not say which isoform; read-out: MNK Biochemical Enzymatic Assay (IC50) Potency
Protocol: Compounds are screened for MNK inhibition using the ADP-Glo kinase assay kit (Promega, catalogue No. V9101). All kinase reactions are performed in Reaction Buffer E (15 mM HEPES pH7.4, 20 mM NaCl, 1 mM EGTA, 10 mM MgCl2, 0.1 mg/ml BGG, and 0.02% Tween-20). Final MNK1 reactions contained 10 nM recombinant MNK1 (Life Technologies, PR9138A), 100 μM MNK substrate peptide Ac-TATKSGSTTKNR-NH2 (American Peptide Company), 300 μM ATP, and varying concentrations of the inhibitory compound of interest. Final MNK2 reactions contained 3 nM recombinant MNK2 (Life Technologies, PV5607), 50 μM MNK substrate peptide Ac-TATKSGSTTKNR-NH2 (American Peptide Company), 10 μM ATP, and varying concentrations of the inhibitory compound of interest. Final DMSO concentration in each reaction is 1%.
Kinase reactions are carried out in 96-well half-area white flat-bottom polystyrene plates in a final volume of 25 al. MNK1/2 enzymes are pre-incubated with compound and peptide substrate for 5 minutes prior to the addition of ATP. After the addition of ATP, kinase reactions are incubated at room temperature for 40 minutes. Reactions are subsequently stopped by the addition of 25 al of ADP-Glo Reagent and incubating for an additional 40 minutes. The final luminescent signal used for kinase activity readout is produced by the addition of 45 al of Kinase Detection Reagent (ADP-Glo kit, Promega) and incubating for 40 minutes. The luminescent signal is detected using a Victor 2 multilabel counter (Perkin Elmer) and the concentration of compound necessary to achieve inhibition of enzyme activity by 50% (IC50) is calculated using signals from an 8-point compound dilution series.
To this end, IC50 values of less than 1 μM are labeled as “+++”, from 1 to 10 μM are labeled as “++”, and from […] are labeled as “+”.

Row | Structure (SMILES) | IC50 [µM]
1 | CC(C)Cc1c(C(N)=O)ccc2c1ccn2-c1ncnc(N)c1Cl [Compound 8F, 1-(6-amino-5-chloropyrimidin-4-yl)-4-isobutyl-1H-indole-5-carboxamide] | 10 to 100
2 | CC(C)Cc1c(C(N)=O)ccc2c(-c3ncnc(N)c3Cl)cn(C)c12 [Compound 9F, 3-(6-amino-5-chloropyrimidin-4-yl)-7-isobutyl-1-methyl-1H-indole-6-carboxamide] | < 1
3 | CC(C)Cc1c(C(=O)N(C)C)ccc2c1ncn2-c1ncnc(N)c1Cl [Compound 10F, 1-(6-amino-5-chloropyrimidin-4-yl)-4-isobutyl-N,N-dimethyl-1H-benzo[d]imidazole-5-carboxamide] | 1 to 10
4 | CC(C)Cc1c(C(=O)N(C)C)ccc2c1ncn2-c1cc(N)ncn1 [Compound 11F, 1-(6-aminopyrimidin-4-yl)-4-isobutyl-N,N-dimethyl-1H-benzo[d]imidazole-5-carboxamide] | 1 to 10

Now from value to compound:

Row | IC50 [µM] | Structure (SMILES)
5 | 1 to 10 | CC(C)Cc1c(C(N)=O)ccc2c1cnn2-c1ncnc(N)c1Cl [Compound 12F, 1-(6-amino-5-chloropyrimidin-4-yl)-4-isobutyl-1H-indazole-5-carboxamide]
6 | 1 to 10 | CC(C)Cc1c(C(N)=O)ccc2c1ncn2-c1ncnc(N)c1Cl [Compound 13F, 1-(6-amino-5-chloropyrimidin-4-yl)-4-isobutyl-1H-benzo[d]imidazole-5-carboxamide]
